Test results published in US5728563A, “Cyclic nucleotide phosphodiesterase and a method for production thereof” (Taisho Pharmaceutical Co., Ltd., priority 1993, dated 1998).
“Also recorded” adds a separate entry of the source.

Key:
Format in all cases: biochemical
[1] = test system: cyclic nucleotide phosphodiesterase (the enzyme of the present invention) isolated from rat cerebral cortex; assay: Effect of metal ions on the enzymatic activity
Procedure: (§1) The mixture is reacted at 30° C. Ten minutes after, the reaction mixture is put in a heat bath of 100° C. to terminate the reaction in 5 minutes. That is, the enzyme of the present invention is inactivated by heating at 100° C. A test tube charged with the reaction mixture is then ice-cooled. Next, 50 μg of snake venom, which contains 5'-nucleotidase, is added to and reacted with the reaction mixture at 30° C. for 10 minutes. […] 5'-AMP, which is then with 5'-nucleotidase in snake venom to form [8-^3 H] adenosine. After 4 ml of water is added to this reaction mixture, the mixture is adsorbed onto a column packed with cation exchange resin (AG50 WX4, Bio-Rad). After thoroughly rinsing, the reaction product [8-^3 H] adenosine is eluted with 1.5 ml 3N NH4 OH. The radioactivity of the eluted [8-^3 H] adenosine is measured to determine the enzymatic activity of the present invention.

[2] = target: cyclic nucleotide phosphodiesterase (the enzyme of the present invention) isolated from rat cerebral cortex; assay: Effects of inhibitors on the enzymatic activity (two-step assay, cAMP hydrolysis); settings: for IC50: enzymatic activity in the absence of inhibitor made 100%; for inhibition compared to PDEI, PDEIII or PDEIV: comparison with the known isozyme that the inhibitor acts on
Procedure: The activity of the enzyme of the present invention was determined by the two-step assay (Masuoka et al., Biochem. Biophys. Res. Commun., 169, 315-322, 1990).
Using various inhibitors which are known to inhibit the activity of PDEI, III or IV, the enzymatic activity of the enzyme of the present invention was measured by varying the concentration of these inhibitors.
as §1
The enzymatic activity of the enzyme of the present invention was measured by varying the concentrations of various inhibitors. […] In more detail, during the reaction with the enzyme of the present invention in assaying for the enzymatic activity described in Example, an inhibitor having various concentrations was further added to the reaction mixture to determine the enzymatic activity.

[3] = test system: cyclic nucleotide phosphodiesterase (the enzyme of the present invention) isolated from rat cerebral cortex; assay: Substrate specificity, Km by double reciprocal plots; settings: substrate varied 0.06 μM to 100 μM
[4] = test system: cyclic nucleotide phosphodiesterase (the enzyme of the present invention) isolated from rat cerebral cortex; assay: Effect of activators (calcium-calmodulin, cGMP) on cAMP hydrolysis; settings: 0.4 μg/ml calmodulin plus 0.2 mM calcium chloride versus 2 mM EGTA; or 10 μM cGMP
Procedure: Effects on the enzyme of the present invention were analyzed by adding 0.4 μg/ml calmodulin purified from bovine brain and 0.2 mM calcium chloride.
The mixture is reacted at 30° C. Ten minutes after, the reaction mixture is put in a heat bath of 100° C. to terminate the reaction in 5 minutes. That is, the enzyme of the present invention is inactivated by heating at 100° C. A test tube charged with the reaction mixture is then ice-cooled. Next, 50 μg of snake venom, which contains 5'-nucleotidase, is added to and reacted with the reaction mixture at 30° C. for 10 minutes. […] After 4 ml of water is added to this reaction mixture, the mixture is adsorbed onto a column packed with cation exchange resin (AG50 WX4, Bio-Rad). After thoroughly rinsing, the reaction product [8-^3 H] adenosine is eluted with 1.5 ml 3N NH4 OH. The radioactivity of the eluted [8-^3 H] adenosine is measured to determine the enzymatic activity of the present invention.

Row | Structure (SMILES) | effect as metal cation / cofactor for the enzymatic reaction [1] | IC50 [2] [µM] | inhibition compared to PDEI, PDEIII or PDEIV [2] | other results
1 | [Ba+2] [Ba^2+] | no ability as a cofactor |  |  | 
2 | [Ca+2] [Ca^2+] | no ability as a cofactor |  |  | 
3 | [Co+2] [Co^2+] |  |  |  | concentrations with inhibitory effect [1]: above 100 μM; concentrations with stimulatory effect [1]: less than 100 μM
4 | [Cu+2] [Cu^2+] | no ability as a cofactor |  |  | 
5 | CC(C)Cn1c(=O)n(C)c(=O)c2[nH]cnc21 [IBMX, 3-isobutyl-1-methylxanthine] |  | 26.5 ± 2.5 |  | 
6 | [Cl-].[Cl-].[Mg+2] [Magnesium, magnesium chloride] | most efficient metal cation |  |  | concentration at which the enzyme was activated [1]: 1 µM; concentration at which the maximum effect/activity was observed [1]: over 5 mM
7 | [Mn+2] [Manganese] | relatively stimulatory effect |  |  | 
8 | [Ni+2] [Ni^2+] | no ability as a cofactor |  |  | 
9 | CCCCOc1cc(CC2CNC(=O)N2)ccc1OC (centres unmarked) [Ro20-1724, 4-(3-buthoxy-4-methoxybenzyl)-2-imidazolidinone] |  | > 300 | less inhibited | 
10 | CC(=O)Nc1ccc(-c2c[nH]c(=O)cn2)cc1 [SK&F94120, 5-(4-acetamidophenyl)pyrazin-1H-one] |  | > 300 | not inhibited | 
11 | [Zn+2] [Zn^2+] | no ability as a cofactor |  |  | 
12 | Nc1nc2c(ncn2[C@@H]2O[C@@H]3COP(=O)(O)O[C@H]3[C@H]2O)c(=O)[nH]1 [cGMP, cyclic guanosine 3',5'-monophosphate] |  |  |  | Km [3]: 1.78 µM; activation of the enzyme / sensitivity of the enzymatic activity [4]: insensitive; also recorded: not activated
13 | O=C1CCc2cc(OCCCCc3nnnn3C3CCCCC3)ccc2N1 [cilostazol] |  | > 300 | not inhibited | 
14 | COC(=O)C1=C(C)NC(C)=C(C(=O)OCCN(C)Cc2ccccc2)C1c1cccc([N+](=O)[O-])c1 (centres unmarked) [nicardipine] |  | > 300 | less inhibited | IC50 ([2]; unit inferred): > 300 µM
15 | COc1ccc(Cc2nccc3cc(OC)c(OC)cc23)cc1OC [papaverine] |  |  |  | Ki ([2]; Dixon plots, varying cAMP and papaverine concentrations, read-out: inhibition constant (Ki value)): 0.036 µM
16 | COc1ccc(C2CNC(=O)C2)cc1OC1CCCC1 (centres unmarked) [rolipram] |  | > 300 | less inhibited | 
